Literature values as cited in the CATMoS acute toxicity set (Mansouri et al. 2021).
Several values for one entry are separate records, joined by “and”; a condition that tells them apart may be missing. Identical values can stand only once.

Test: rat acute oral toxicity
Conditions: in vivo

Question: For `COc1ccc2c(c1)OC(C)(C)[C@H](c1ccccc1)[C@H]2c1ccc(OCCN2CCCC2)cc1` (racemic), which LD50 is on record?
Answer: 800 mg/kg

Question: With `CC1(C)C(C(=O)OC(C#N)c2cccc(Oc3ccccc3)c2)C1(C)C` (configuration not stated) as the compound, how does the LD50 read?
Answer: 18 mg/kg

Question: With `Clc1ccc(C(Cn2ccnc2)OCc2ccsc2Cl)c(Cl)c1` (configuration not stated) as the compound, how does the LD50 read?
Answer: 770 mg/kg

Question: For `O=C1NC(=O)C(=O)C(=O)N1`, which LD50 is on record?
Answer: 5210 mg/kg

Question: For `O=C1CCc2cc(CCCCN3CCN(c4ccccc4Cl)CC3)ccc2N1`, which LD50 is on record?
Answer: 500 mg/kg

Question: For `CC(C)CCON=O`, which LD50 is on record?
Answer: 505 mg/kg

Question: Which LD50 does the source give for `CCCCCCCCC(CC=CCl)CCCN` (configuration not stated) here?
Answer: 1320 mg/kg

Question: Which LD50 does the source give for `N#Cc1ccc(C2CCCc3cncn32)cc1` (configuration not stated) here?
Answer: 200 mg/kg

Question: For `OC1(c2ccccc2)c2ccccc2C2=NCCN21` (configuration not stated), which LD50 is on record?
Answer: 300 mg/kg

Question: Which LD50 does the source give for `CCCCC` here?
Answer: 400 mg/kg

Question: With `CCOP(=S)(OCC)Sc1nc(C)cc(C)n1` as the compound, how does the LD50 read?
Answer: 59 mg/kg

Question: For `NS(=O)(=O)c1ccccc1`, which LD50 is on record?
Answer: 991 mg/kg

Question: For `O=C(CCCN1CC=C(n2c(=O)[nH]c3ccccc32)CC1)c1ccc(F)cc1`, which LD50 is on record?
Answer: 750 mg/kg

Question: With `C[N+](C)(C)Cc1ccccc1` as the compound, how does the LD50 read?
Answer: 25 mg/kg

Question: Which LD50 does the source give for `ClC1=C(Cl)C2(Cl)C(Cl)=C(Cl)C3C1C(Cl)CC32` (configuration not stated) here?
Answer: 10200 mg/kg

Question: Which LD50 does the source give for `CCOC(=O)CSP(=O)(OCC)OCC` here?
Answer: 45 mg/kg

Question: With `CN1CCN(N=O)CC1` as the compound, how does the LD50 read?
Answer: 100 mg/kg

Question: With `CCN(COC)N=O` as the compound, how does the LD50 read?
Answer: 540 mg/kg

Question: For `CC(=O)OC1CCCCC1`, which LD50 is on record?
Answer: 6730 mg/kg

Question: With `CCCSc1cc(Oc2ccc([N+](=O)[O-])cc2)ccc1Cl` as the compound, how does the LD50 read?
Answer: 1130 mg/kg

Question: Which LD50 does the source give for `O=c1ccc(=O)[nH][nH]1` here?
Answer: 10800 mg/kg

Question: For `O=C1NC2CCCCN2C12CCN(CCCN1c3ccccc3CCc3ccc(Cl)cc31)CC2` (configuration not stated), which LD50 is on record?
Answer: 4910 mg/kg

Question: For `CC(=O)OC1CC(C)CCC1C(C)C` (configuration not stated), which LD50 is on record?
Answer: 7620 mg/kg

Question: For `c1cc2ccc3cccc4ccc(c1)c2c34`, which LD50 is on record?
Answer: 2700 mg/kg

Question: With `Cc1ncc2coc(OCCO)c2c1O` as the compound, how does the LD50 read?
Answer: 2200 mg/kg

Question: Which LD50 does the source give for `Cc1ccc(-c2nc3n(c2C=NNC(=O)CN(C)C)CCS3)cc1` here?
Answer: 800 mg/kg

Question: With `O=c1ccc(O)n[nH]1` as the compound, how does the LD50 read?
Answer: 3900 mg/kg

Question: For `CN1CCN(CC(=O)NN=Cc2ccc([N+](=O)[O-])o2)CC1`, which LD50 is on record?
Answer: 1350 mg/kg

Question: For `Nc1ccc(OP(=O)(Oc2ccc(N)cc2)Oc2ccc(N)cc2)cc1`, which LD50 is on record?
Answer: 138 mg/kg

Question: With `CC(=O)N1CCN(c2ccc(OC[C@H]3CO[C@](Cn4ccnc4)(c4ccc(Cl)cc4Cl)O3)cc2)CC1` as the compound, how does the LD50 read?
Answer: 166 mg/kg

Question: Which LD50 does the source give for `CCN(CC)CCN` here?
Answer: 2830 mg/kg

Question: With `Nc1ccc2[nH]c3c(c2c1)CCCC3` as the compound, how does the LD50 read?
Answer: 374 mg/kg

Question: With `Cc1cc(=O)n(CSP(=S)(OC(C)C)OC(C)C)nc1Cl` as the compound, how does the LD50 read?
Answer: 110 mg/kg

Question: For `Nc1ncnc2[nH]cnc12`, which LD50 is on record?
Answer: 227 mg/kg

Question: For `CC(=O)c1cccc2ccccc12`, which LD50 is on record?
Answer: 1560 mg/kg

Question: Which LD50 does the source give for `CS(=O)(=O)c1ccc(-c2cn3ccccc3n2)cc1` here?
Answer: 3710 mg/kg

Question: With `Nc1ccc(S(=O)(=O)c2ccc(N)cc2)cc1` as the compound, how does the LD50 read?
Answer: 1000 mg/kg

Question: With `CC(=O)N(CC(C)C(=O)O)c1c(I)cc(I)c(N)c1I` (configuration not stated) as the compound, how does the LD50 read?
Answer: 7100 mg/kg

Question: For `COc1ccccc1C=O`, which LD50 is on record?
Answer: 2500 mg/kg

Question: For `SCc1cnccn1`, which LD50 is on record?
Answer: 1700 mg/kg

Question: Which LD50 does the source give for `CC(C)CNC(=S)NCC(C)C` here?
Answer: 800 mg/kg

Question: With `C=CCOCC1CO1` (configuration not stated) as the compound, how does the LD50 read?
Answer: 1600 mg/kg

Question: With `O=C(C=Cc1ccccc1O)OC(=O)C=Cc1ccccc1O` as the compound, how does the LD50 read?
Answer: 1510 mg/kg

Question: Which LD50 does the source give for `C=C(C)C(=O)OCC(C)O` (configuration not stated) here?
Answer: 11200 mg/kg

Question: Which LD50 does the source give for `CN(N=O)C(=O)NC(N)=O` here?
Answer: 450 mg/kg

Question: For `CC(=O)N(CCN(C(C)=O)C(C)=O)C(C)=O`, which LD50 is on record?
Answer: 7940 mg/kg

Question: For `c1ccc2cc(Nc3ccc(Nc4ccc5ccccc5c4)cc3)ccc2c1`, which LD50 is on record?
Answer: 4500 mg/kg

Question: Which LD50 does the source give for `CCCSP(=S)(OC)SCCC` here?
Answer: 16 mg/kg

Question: With `CCN(CC)Cc1cc(-c2ccccc2)ccc1O` as the compound, how does the LD50 read?
Answer: 28 mg/kg

Question: With `CC1COn2c1nc1ccccc1c2=O` (configuration not stated) as the compound, how does the LD50 read?
Answer: 765 mg/kg

Question: For `CC(C)(N=C=O)c1cccc(C(C)(C)N=C=O)c1`, which LD50 is on record?
Answer: 4600 mg/kg

Question: Which LD50 does the source give for `O=C(CCC1CCN(Cc2ccccc2)CC1)c1ccc2c(c1)NCCCC2` here?
Answer: 334 mg/kg

Question: With `c1ccc(N(CCN2CCCCC2)Cc2ccccn2)cc1` as the compound, how does the LD50 read?
Answer: 806 mg/kg and 740 mg/kg

Question: Which LD50 does the source give for `CCC(CN)=C(c1ccccc1)c1ccccc1` here?
Answer: 148 mg/kg

Question: With `c1ccc2c(c1)OCCOCCOc1ccccc1OCCOCCO2` as the compound, how does the LD50 read?
Answer: 2600 mg/kg

Question: For `C=Cc1ccncc1`, which LD50 is on record?
Answer: 100 mg/kg

Question: For `CC(C)(C)NCC(O)c1cc(Cl)c(N)c(Cl)c1` (configuration not stated), which LD50 is on record?
Answer: 159 mg/kg

Question: Which LD50 does the source give for `C=CC(C)(CCC=C(C)C)OC(=O)C=Cc1ccccc1` (configuration not stated) here?
Answer: 9960 mg/kg

Question: With `CC=CC(C)C1(CC)C(=O)NC(=O)NC1=O` (configuration not stated) as the compound, how does the LD50 read?
Answer: 20 mg/kg

Question: Which LD50 does the source give for `CC(=O)CC(c1ccc([N+](=O)[O-])cc1)c1c(O)c2ccccc2oc1=O` (configuration not stated) here?
Answer: 513 mg/kg

Question: With `Nc1ccc(Cl)cc1Cl` as the compound, how does the LD50 read?
Answer: 1600 mg/kg

Question: With `O=c1c2ccccc2n(-c2cccc(C(F)(F)F)c2)c(=O)n1CCO` as the compound, how does the LD50 read?
Answer: 810 mg/kg

Question: With `CNC(=O)Oc1cc(C)ccc1C(C)C` as the compound, how does the LD50 read?
Answer: 500 mg/kg

Question: Which LD50 does the source give for `CCOC(=O)c1c[nH]c2cc(OCC3CC3)c(OCC3CC3)cc2c1=O` here?
Answer: 3000 mg/kg

Question: For `C[C@H](NCC=C(c1ccsc1)c1ccsc1)[C@H](O)c1ccccc1`, which LD50 is on record?
Answer: 6600 mg/kg

Question: For `CC(C)c1ccc2ccccc2c1C(C)C`, which LD50 is on record?
Answer: 15200 mg/kg

Question: With `N#Cc1cccc(C#N)c1` as the compound, how does the LD50 read?
Answer: 860 mg/kg

Question: For `CN1CCN(C2=Cc3ccccc3Oc3ccc(F)cc32)CC1`, which LD50 is on record?
Answer: 646 mg/kg

Question: With `CC(C)(C)NC[C@H](O)COc1ccccc1C1CCCC1` as the compound, how does the LD50 read?
Answer: 1260 mg/kg

Question: Which LD50 does the source give for `CC1(C)C(=O)[C@@]2(C)CC[C@@H]1C2` here?
Answer: 6160 mg/kg

Question: Which LD50 does the source give for `CC(=O)O[C@H]1C[C@@H]2CC[C@@H]3[C@H](CC[C@@]4(C)[C@H]3C[C@H]([N+]3(C)CCCCC3)[C@@H]4OC(C)=O)[C@@]2(C)C[C@@H]1N1CCCCC1` here?
Answer: 455 mg/kg

Question: Which LD50 does the source give for `C=CCOC(=O)OC(=C)C(=O)OCC=C` here?
Answer: 390 mg/kg
